# pIC50: −log10 of the molar value.
# Legend:
# Human CCR3 = molecular target: T1, Human CCR3 (Homo sapiens, UniProt P51677); test: Receptor binding assay (RBA), [125I]-eotaxin; settings: human CCR3-transformed K562 cells, 0.1 nM [125I]-eotaxin; compounds of about 40 to 90% purity; read-out: Activity grade RBA (IC50 class)
# T1 construct: The cloned CCR3 cDNA was constructed with pcDNA3 vector and transfected into a IC562 cell line; expressed in transfected cells
# T1 sequence (P51677 1-355): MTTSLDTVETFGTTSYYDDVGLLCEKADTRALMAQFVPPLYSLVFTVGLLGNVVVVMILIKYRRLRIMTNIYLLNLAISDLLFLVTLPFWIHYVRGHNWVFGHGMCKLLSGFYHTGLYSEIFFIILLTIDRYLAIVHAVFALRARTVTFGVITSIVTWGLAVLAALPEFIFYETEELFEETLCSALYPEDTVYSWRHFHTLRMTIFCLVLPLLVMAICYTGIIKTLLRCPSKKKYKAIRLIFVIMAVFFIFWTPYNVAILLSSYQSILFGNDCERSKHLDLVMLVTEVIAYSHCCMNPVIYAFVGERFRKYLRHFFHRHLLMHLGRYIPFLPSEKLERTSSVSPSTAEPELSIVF
# In short: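 Butyrate-pretreated (5 mM, 20-24 h) CCR3-transfected K562 cells incubated 1 h at room temperature with compound and 0.1 nM final [125I]-eotaxin in HEPES pH 7.6 buffer; bound radioactivity counted after filtration. Non-specific binding with 500 nM unlabeled eotaxin; IC50 from inhibition curve.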
Compound,pIC50 (Human CCR3),melting point
COc1ccccc1Oc1ccc([N+](=O)[O-])cc1S(=O)(=O)N1CCNCC1.Cl [Example 1-27],> 6.00,142 °C
CC(=O)c1cccc(Oc2ccc([N+](=O)[O-])cc2S(=O)(=O)N2CCNCC2)c1.Cl [Example 1-31],< 5.00,77 °C
CN(C)c1cccc(Oc2ccc([N+](=O)[O-])cc2S(=O)(=O)N2CCNCC2)c1.Cl [Example 1-32],< 5.00,182 °C
Cl.O=[N+]([O-])c1ccc(Oc2cccc(C(F)(F)F)c2)c(S(=O)(=O)N2CCNCC2)c1 [Example 1-34],> 6.00,128 °C
Cc1cc(C)cc(Oc2ccc(S(C)(=O)=O)cc2S(=O)(=O)N2CCNCC2)c1.Cl [Example 1-35],5.00 to 6.00,267 to 268 °C
Cl.O=[N+]([O-])c1ccc(Oc2cccc(Br)c2)c(S(=O)(=O)N2CCNCC2)c1 [Example 1-39],> 6.00,119 °C
CCCCc1ccccc1Oc1ccc([N+](=O)[O-])cc1S(=O)(=O)N1CCNCC1.Cl [Example 1-40],> 6.00,140 to 150 °C
Cc1cc(C)cc(Oc2ccc(C(F)(F)F)cc2S(=O)(=O)N2CCNCC2)c1.Cl [Example 1-43],> 6.00,238 to 239 °C
Cc1cc(C)cc(Oc2cc(C)c([N+](=O)[O-])cc2S(=O)(=O)N2CCNCC2)c1.Cl [Example 1-44],5.00 to 6.00,159 °C
Cc1cc(Oc2cc(Cl)cc(Cl)c2)c(S(=O)(=O)N2CCNCC2)cc1[N+](=O)[O-].Cl [Example 1-45],> 6.00,168 °C
Cc1cc(C)cc(Oc2cc(C(F)(F)F)ccc2S(=O)(=O)N2CCNCC2)c1.Cl [Example 1-46],< 5.00,250 to 251 °C
COc1cc(Oc2cc(C)cc(C)c2)c(S(=O)(=O)N2CCNCC2)cc1[N+](=O)[O-].Cl [Example 1-47],5.00 to 6.00,188 °C
O=[N+]([O-])c1ccc(Oc2cc(Cl)cc(Cl)c2)c(S(=O)(=O)N2CC3CCCNC3C2)c1 (stereo not drawn) [Example 1-48],> 6.00,170 °C
Cc1cc(C)cc(Oc2ccc([N+](=O)[O-])cc2S(=O)(=O)N2CC(C)NCC2C)c1.Cl (stereo not drawn) [Example 1-54],> 6.00,159 °C
Cl.O=S(=O)(c1cc(Br)ccc1Oc1cc(Cl)cc(Cl)c1)N1CCNCC1 [Example 1-57],> 6.00,269 to 271 °C
Cc1ccc(C)c(Oc2ccc([N+](=O)[O-])cc2S(=O)(=O)N2CCNCC2)c1.Cl [Example 1-64],> 6.00,141 °C
Cc1ccc(C(C)C)c(Oc2ccc([N+](=O)[O-])cc2S(=O)(=O)N2CCNCC2)c1.Cl [Example 1-66],5.00 to 6.00,193 °C
Cl.O=[N+]([O-])c1ccc(Oc2c(F)c(F)cc(F)c2F)c(S(=O)(=O)N2CCNCC2)c1 [Example 1-74],> 6.00,104 °C
Cc1cc(Oc2ccc([N+](=O)[O-])cc2S(=O)(=O)N2CCNCC2)cc(C)c1Cl [Example 1-79],> 6.00,178 to 179 °C
Cc1ccc(Cl)c(Oc2ccc([N+](=O)[O-])cc2S(=O)(=O)N2CCNCC2)c1 [Example 1-80],> 6.00,166 to 167 °C
Cl.O=[N+]([O-])c1ccc(Oc2cc(Cl)cc(Cl)c2Cl)c(S(=O)(=O)N2CCNCC2)c1 [Example 1-86],> 6.00,188 to 189 °C
O=C(O)C1CNCCN1S(=O)(=O)c1cc([N+](=O)[O-])ccc1Oc1cc(Cl)cc(Cl)c1 (stereo not drawn) [Example 1-87],> 6.00,240 to 241 °C
"CN(CCN1CCCCC1)S(=O)(=O)c1cc([N+](=O)[O-])ccc1Sc1cc(Cl)cc(Cl)c1 [Example 26-1, 2-[(3,5-dichlorophenyl)sulfanyl]-N-methyl-5-nitro-N-[2-(1-piperidinyl)ethyl]benzenesulfonamide]",> 6.00,113 to 114 °C

# Second part, the compound after the results:
pIC50 (Human CCR3),melting point,Compound
5.00 to 6.00,166 to 169 °C,Cl.O=[N+]([O-])c1ccc(Oc2ccccc2Cl)c(S(=O)(=O)N2CCNCC2)c1 [Example 1-28]
< 5.00,194 to 200 °C,CC(=O)c1ccccc1Oc1ccc([N+](=O)[O-])cc1S(=O)(=O)N1CCNCC1.Cl [Example 1-30]
> 6.00,260 to 264 °C,Cl.O=[N+]([O-])c1ccc(Oc2cc(Cl)cc(Cl)c2)c(S(=O)(=O)N2CCNCC2)c1 [Example 1-33]
5.00 to 6.00,155 °C,CC(C)(C)c1cccc(Oc2ccc([N+](=O)[O-])cc2S(=O)(=O)N2CCNCC2)c1.Cl [Example 1-36]
> 6.00,113 °C,COc1cc(C)cc(Oc2ccc([N+](=O)[O-])cc2S(=O)(=O)N2CCNCC2)c1.Cl [Example 1-37]
5.00 to 6.00,150 °C,Cl.O=[N+]([O-])c1cccc(Oc2ccc([N+](=O)[O-])cc2S(=O)(=O)N2CCNCC2)c1 [Example 1-38]
< 5.00,205 to 207 °C,Cc1cc(C)cc(Oc2ccccc2S(=O)(=O)N2CCNCC2)c1.Cl [Example 1-41]
< 5.00,288 to 290 °C,Cc1cc(C)cc(Oc2ccc(C(=O)N3CCNCC3)cc2S(=O)(=O)N2CCNCC2)c1.Cl.Cl [Example 1-42]
> 6.00,145 °C,Cl.O=S(=O)(c1cc(F)ccc1Oc1cc(Cl)cc(Cl)c1)N1CCNCC1 [Example 1-51]
> 6.00,255 to 257 °C,Cl.O=S(=O)(c1cc(Cl)ccc1Oc1cc(Cl)cc(Cl)c1)N1CCNCC1 [Example 1-56]
5.00 to 6.00,204 °C,Cc1cc(Oc2ccc([N+](=O)[O-])cc2S(=O)(=O)N2CCNCC2)ccc1Cl.Cl [Example 1-60]
5.00 to 6.00,220 °C,Cc1ccc(C)c(Oc2ccc([N+](=O)[O-])cc2S(=O)(=O)N2CCNCC2)c1C.Cl [Example 1-61]
> 6.00,142 °C,Cc1cccc(Oc2ccc([N+](=O)[O-])cc2S(=O)(=O)N2CCNCC2)c1C.Cl [Example 1-62]
5.00 to 6.00,142 °C,Cc1ccc(Oc2ccc([N+](=O)[O-])cc2S(=O)(=O)N2CCNCC2)cc1C.Cl [Example 1-63]
> 6.00,187 °C,Cc1cc(C)c(C)c(Oc2ccc([N+](=O)[O-])cc2S(=O)(=O)N2CCNCC2)c1.Cl [Example 1-65]
> 6.00,205 °C,O=[N+]([O-])c1ccc(Oc2cc(Br)cc(Br)c2)c(S(=O)(=O)N2CCNCC2)c1 [Example 1-76]
> 6.00,263 °C,Cl.O=[N+]([O-])c1ccc(Oc2cc(Cl)cc(Cl)c2F)c(S(=O)(=O)N2CCNCC2)c1 [Example 1-77]
> 6.00,179 to 180 °C,O=[N+]([O-])c1ccc(Oc2cc(Cl)ccc2Cl)c(S(=O)(=O)N2CCNCC2)c1 [Example 1-84]
> 6.00,163 to 164 °C,Cc1cc(C)cc(Oc2ccc([N+](=O)[O-])cc2S(=O)(=O)N2CCN(CCO)CC2)c1 [Example 1-88]
> 6.00,261 to 263 °C,Cl.O=[N+]([O-])c1ccc(Oc2cc(Cl)cc(Cl)c2)c(S(=O)(=O)N2CCCNCC2)c1 [Example 1-91]
> 6.00,256 to 258 °C,Cl.N[C@H]1CCN(S(=O)(=O)c2cc([N+](=O)[O-])ccc2Oc2cc(Cl)cc(Cl)c2)C1 [Example 1-100]
< 5.00,228 to 230 °C,"Cc1cc(C)cc(Oc2ccc(NC(=O)Cc3ccccc3)cc2S(=O)(=O)N2CCNCC2)c1 [Example 7-1, N-[4-(3,5-dimethylphenoxy)-3-(1-piperazinylsulfonyl)phenyl]-2-phenylacetamide]"

# — patent US8242118B2, “Arylsulfonamide derivatives for use as CCR3 antagonists in the treatment of inflammatory and immunological disorders” (Axikin Pharmaceuticals Inc., priority 2001, dated 2012)
